Molecules are shown by their SMILES. Counter-ions that a name gives are not always drawn. Where only a bound is given, the exact number is not on record here.

Broadly, the melting point is the temperature of the solid-liquid transition. `Cc1nn(-c2ccccn2)c2nc3ccc(C(F)(F)F)cc3c(Cl)c12` [Example 2-39, 4-Chloro-3-methyl-1-(2-pyridinyl)-6-(trifluoromethyl)-1H-pyrazolo[3,4-b]quinoline] came in with a melting point of 206 °C.
`Cc1nn(-c2ccncc2)c2nc3ccccc3c(N)c12.Cl.Cl`: the melting point is 259 to 266 °C.
Next, `Cc1nn(-c2ccccn2)c2nc3c(F)cccc3c(Cl)c12` [Example 2-84, 4-Chloro-8-fluoro-3-methyl-1-(2-pyridinyl)-1H-pyrazolo[3,4-b]quinoline]: 191 °C; `COc1ccc(-c2nn(-c3ccccn3)c3[nH]c4ccccc4c(=O)c23)cc1` [Example 2-185, 3-(4-Methoxyphenyl)-1-(2-pyridinyl)-1,9-dihydro-4H-pyrazolo[3,4-b]quinolin-4-one]: 197 to 199 °C; `Cc1nn(-c2ccccn2)c2nc3ccccc3c(CC(C)C)c12` [Example 2-105, 4-Isobutyl-3-methyl-1-(2-pyridinyl)-1H-pyrazolo[3,4-b]quinoline]: 87 to 88 °C.
Consider `Cc1nn(-c2ccccn2)c2ncc(C(=O)Nc3ccc(F)c(F)c3)c(O)c12` [Example 1-15, N-(3,4-Difluorophenyl)-4-hydroxy-3-methyl-1-(2-pyridinyl)-1H-pyrazolo[3,4-b]pyridine-5-carboxamide], for which the melting point is greater than 300 °C.
Next, `Cc1cccc2c(=O)c3c(C)nn(-c4ccccn4)c3[nH]c12` [Example 2-38, 3,8-Dimethyl-1-(2-pyridinyl)-1,9-dihydro-4H-pyrazolo[3,4-b]quinolin-4-one]: 241 to 243 °C; `Cc1nn(-c2ccncc2)c2[nH]c3ccccc3c(=O)c12` [Example 2-143, 3-Methyl-1-(4-pyridinyl)-1,9-dihydro-4H-pyrazolo[3,4-b]quinolin-4-one]: greater than 300 °C.
Consider `Cc1nn(Cc2ccncc2)c2[nH]c3ccccc3c(=O)c12` [Example 2-192, 3-Methyl-1-(4-pyridinylmethyl)-1,9-dihydro-4H-pyrazolo[3,4-b]quinolin-4-one], for which the melting point fell in the range of 277 to 280 °C.
Consider `Clc1c2ccccc2nc2c1cnn2-c1ccccn1` [Example 2-157, 4-Chloro-1-(2-pyridinyl)-1H-pyrazolo[3,4-b]quinoline], for which the melting point lay within 153 to 156 °C.
Compound `Cc1nn(-c2cccnc2)c2nc3cc(F)c(F)cc3c(Cl)c12` [Example 2-202, 4-Chloro-6,7-difluoro-3-methyl-1-(3-pyridinyl)-1H-pyrazolo[3,4-b]quinoline] returned a melting point of 192 to 194 °C.
`Cc1nn(Cc2cccnc2)c2[nH]c3ccccc3c(=O)c12` [Example 2-191, 3-Methyl-1-(3-pyridinylmethyl)-1,9-dihydro-4H-pyrazolo[3,4-b]quinolin-4-one] yielded a melting point of 285 to 288 °C.
Compound `Cc1nn(-c2ccccn2)c2nc3ccc(Br)cc3c(Cl)c12` [Example 2-86, 6-Bromo-4-chloro-3-methyl-1-(2-pyridinyl)-1H-pyrazolo[3,4-b]quinoline] showed a melting point of 234 to 235 °C.
Regarding `COC(=O)c1ccc2c(=O)c3c(C)nn(-c4ccccn4)c3[nH]c2c1` [Example 2-67, Methyl 3-methyl-4-oxo-1-(2-pyridinyl)-4,9-dihydro-1H-pyrazolo[3,4-b]quinoline-7-carboxylate], the melting point was 251 to 252 °C.
Next, `Oc1ccnc2c1cnn2-c1ccccn1` [Example 1-7, 1-(2-Pyridinyl)-1H-pyrazolo[3,4-b]pyridin-4-ol]: 192 to 194 °C; `Cc1nn(-c2ccccn2)c2ncc(C(=O)NC3CCCCC3)c(O)c12` [Example 1-8, N-Cyclohexyl-4-hydroxy-3-methyl-1-(2-pyridinyl)-1H-pyrazolo[3,4-b]pyridine-5-carboxamide]: greater than 300 °C; `NC(=O)Cc1nn(-c2ccccn2)c2[nH]c3ccccc3c(=O)c12` [Example 2-178, 2-[4-Oxo-1-(2-pyridinyl)-4,9-dihydro-1H-pyrazolo[3,4-b]quinolin-3-yl]acetamide]: 302 to 305 °C.
With `Fc1cc2nc3c(cnn3-c3ccccn3)c(Cl)c2cc1F` [Example 2-198, 4-Chloro-6,7-difluoro-1-(2-pyridinyl)-1H-pyrazolo[3,4-b]quinoline], the melting point was 167 to 168 °C.
On to `Cc1nn(-c2ccccn2)c2[nH]c3c(c(=O)c12)CCCC3` [Example 2-194, 3-Methyl-1-(2-pyridinyl)-1,5,6,7,8,9-hexahydro-4H-pyrazolo[3,4-b]quinolin-4-one], for which the melting point lay in the range of 172 to 173 °C.
`Cc1nn(-c2ccccn2)c2[nH]c3ccc(Br)cc3c(=O)c12` [Example 2-87, 6-Bromo-3-methyl-1-(2-pyridinyl)-1,9-dihydro-4H-pyrazolo[3,4-b]quinolin-4-one] had a melting point of 240 to 242 °C.
Next, `Cc1nn(Cc2ccccn2)c2nc3ccccc3c(N)c12` (as salt: salt) [Example 2-187, 3-Methyl-1-(2-pyridinylmethyl)-1H-pyrazolo[3,4-b]quinolin-4-ylamine]: 262 to 265 °C.
The compound `Cc1nn(-c2ccncc2)c2nc3ccccc3c(N(C)C)c12` [Example 2-142, N,N-Dimethyl-N-[3-methyl-1-(4-pyridinyl)-1H-pyrazolo[3,4-b]quinolin-4-yl]amine] showed a melting point of 155 to 156 °C.
The compound `Cc1nn(-c2ncccn2)c2nc3ccccc3c(N)c12.Cl` came in with a melting point of 287 to 290 °C.
Turning to `Cc1nn(-c2ccccn2)c2ncc(C(=O)Nc3ccccc3)c(O)c12` [Example 1-11, 4-Hydroxy-3-methyl-N-phenyl-1-(2-pyridinyl)-1H-pyrazolo[3,4-b]pyridine-5-carboxamide], the melting point is greater than 300 °C.
`Cc1nn(-c2ncccn2)c2nc3ccccc3c(N)c12` (as salt: hydrochloride) [Example 1-65, 3-Methyl-1-(2-pyrimidinyl)-1H-pyrazolo[3,4-b]quinolin-4-ylamine hydrochloride] came in with a melting point of 287 to 290 °C.
The value for `COC(=O)c1ccc2nc3c(c(C)nn3-c3ccccn3)c(Cl)c2c1` [Example 2-63, Methyl 4-chloro-3-methyl-1-(2-pyridinyl)-1H-pyrazolo[3,4-b]quinoline-6-carboxylate] was 199 to 200 °C; that for `Cc1cccc2c(=O)c3c(C)nn(-c4ccc5ccccc5n4)c3[nH]c12` [Example 2-154, 3,8-Dimethyl-1-(2-quinolinyl)-1,9-dihydro-4H-pyrazolo[3,4-b]quinolin-4-one] was 255 to 257 °C.
In turn, `Cc1nn(-c2ccccn2)c2[nH]c3ccccc3c(=O)c12` [Example 1-39, 3-Methyl-1-(2-pyridinyl)-1,9-dihydro-4H-pyrazolo[3,4-b]quinolin-4-one] had a melting point of 199 to 200 °C.
Consider `CCOc1cccc(-n2nc(C)c3c(N)c4cccc(C)c4nc32)n1` [Example 2-129, 3,8-Dimethyl-1-(6-ethoxy-2-pyridinyl)-1H-pyrazolo[3,4-b]quinolin-4-ylamine], for which the melting point was in the range of 184 to 187 °C.
With `Cc1nn(-c2ccccn2)c2[nH]c3cccc(C(=O)O)c3c(=O)c12` [Example 2-62, 3-Methyl-4-oxo-1-(2-pyridinyl)-4,9-dihydro-1H-pyrazolo[3,4-b]quinoline-5-carboxylic acid], the melting point fell in the range of 303 to 306 °C.
Next, `Cc1cccc(-n2nc(C)c3c(Cl)c4ccccc4nc32)n1` [Example 2-207, 4-Chloro-3-methyl-1-(6-methyl-2-pyridinyl)-1H-pyrazolo[3,4-b]quinoline]: 154 °C; `CCCc1c2ccccc2nc2c1c(C)nn2-c1ccccn1` [Example 2-103, 3-Methyl-4-propyl-1-(2-pyridinyl)-1H-pyrazolo[3,4-b]quinoline]: 108 to 109 °C; `O=c1c2ccccc2[nH]c2c1c(C(F)(F)F)nn2-c1ccccn1` [Example 2-167, 1-(2-Pyridinyl)-3-trifluoromethyl-1,9-dihydro-4H-pyrazolo[3,4-b]quinolin-4-one]: 231 to 233 °C.
As for `CCCSc1c2ccccc2nc2c1c(C)nn2-c1ccccn1` [Example 2-27, 3-Methyl-4-(propylsulfanyl)-1-(2-pyridinyl)-1H-pyrazolo[3,4-b]quinoline], the melting point is 91 to 93 °C.
In turn, `COc1cccc2c(N)c3c(C)nn(-c4ccccn4)c3nc12.Cl` registered a melting point of 248 to 251 °C.
Consider `Cc1cccnc1-n1nc(C)c2c(N)c3cccc(C)c3nc21` [Example 2-134, 3,8-Dimethyl-1-(3-methyl-2-pyridinyl)-1H-pyrazolo[3,4-b]quinolin-4-ylamine], for which the melting point was 199 to 202 °C.
As for `Cc1nn(-c2ccccn2)c2[nH]c3cccc(Cl)c3c(=O)c12` [Example 2-69, 5-Chloro-3-methyl-1-(2-pyridinyl)-1,9-dihydro-4H-pyrazolo[3,4-b]quinolin-4-one], the melting point was in the range of 212 to 213 °C.
For the compound `CCCCN(C)c1c2ccccc2nc2c1c(C)nn2-c1ccccn1` [Example 2-10, N-Butyl-N-methyl-[3-methyl-1-(2-pyridinyl)-1H-pyrazolo[3,4-b]quinolin-4-yl]amine], the melting point lay within 85 to 87 °C.
Next, `Cc1nn(-c2ccccn2)c2[nH]c3ccc(S(C)(=O)=O)cc3c(=O)c12` [Example 2-52, 3-Methyl-6-(methylsulfonyl)-1-(2-pyridinyl)-1,9-dihydro-4H-pyrazolo[3,4-b]quinolin-4-one]: greater than 300 °C; `Cc1nn(-c2ccccn2)c2nc3cccc(F)c3c(Cl)c12` [Example 2-78, 4-Chloro-5-fluoro-3-methyl-1-(2-pyridinyl)-1H-pyrazolo[3,4-b]quinoline]: 160 to 161 °C.
Consider `Cc1nn(-c2ccncc2)c2nc3cc(F)c(F)cc3c(Cl)c12` [Example 2-204, 4-Chloro-6,7-difluoro-3-methyl-1-(4-pyridinyl)-1H-pyrazolo[3,4-b]quinoline], for which the melting point was in the range of 226 to 228 °C.
As to `Cc1cccc(-n2nc(C)c3c(=O)c4ccccc4[nH]c32)n1` [Example 2-208, 3-Methyl-1-(6-methyl-2-pyridinyl)-1,9-dihydro-4H-pyrazolo[3,4-b]quinolin-4-one], the melting point turned out to be 252 °C.
